According to US8653263B2 (Janssen Pharmaceutica, priority 2009, dated 2014):
Where two headings read alike, the source gives them in different places.

Biological target: human orexin-2 receptor (Homo sapiens (Human), UniProt O43614)
Assay: Human orexin 2 receptor radioligand binding ([3H]-EMPA competition)
Details: read-out: OR 2 Ki
[1] = HEK293 cells stably expressing human orexin-2 receptor, [3H]-EMPA 5 nM final, apparent Ki=IC50/(1+C/Kd), Kd=2 nM

human orexin-2 receptor, sequence (O43614 whole entry): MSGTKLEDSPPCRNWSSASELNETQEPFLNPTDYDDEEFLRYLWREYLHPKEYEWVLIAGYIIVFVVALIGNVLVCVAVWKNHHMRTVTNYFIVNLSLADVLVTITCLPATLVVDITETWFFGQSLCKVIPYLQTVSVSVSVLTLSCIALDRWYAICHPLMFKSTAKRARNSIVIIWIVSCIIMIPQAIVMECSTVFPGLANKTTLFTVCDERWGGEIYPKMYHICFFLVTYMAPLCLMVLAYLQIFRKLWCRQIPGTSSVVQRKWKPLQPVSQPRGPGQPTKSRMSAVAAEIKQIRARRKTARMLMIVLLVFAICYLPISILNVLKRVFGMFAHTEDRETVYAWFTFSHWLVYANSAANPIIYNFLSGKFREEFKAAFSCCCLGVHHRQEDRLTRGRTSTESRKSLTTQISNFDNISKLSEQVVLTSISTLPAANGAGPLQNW

Compound	Ki [1]	Ki
O=C(c1c(F)cccc1-n1nccn1)N1CC2CN(c3cnc4cc(F)c(F)cc4n3)CC2C1 (stereo not shown) [Example 246, (5-(6,7-Difluoroquinoxalin-2-yl)hexahydropyrrolo[3,4-c]pyrrol-2(1H)-yl)(2-fluoro-6-(2H-1,2,3-triazol-2-yl)phenyl)methanone]	11 nM	–
O=C(c1cccc(F)c1Br)N1CC2CN(c3ncc4cc(F)ccc4n3)CC2C1 (stereo not shown) [Example 247, (2-Bromo-3-fluorophenyl)(5-(6-fluoroquinazolin-2-yl)hexahydropyrrolo[3,4-c]pyrrol-2(1H)-yl)methanone]	650 nM	–
Cc1ccc(-c2cc(F)ccc2C(=O)N2CC3CN(c4nc(C)cc(C)n4)CC3C2)nc1 (stereo not shown) [Example 248, (5-(4,6-dimethylpyrimidin-2-yl)hexahydropyrrolo[3,4-c]pyrrol-2(1H)-yl)(4-fluoro-2-(5-methylpyridin-2-yl)phenyl)methanone]	170 nM	–
Cc1nc(N2CC3CN(C(=O)c4c(F)cccc4-n4nccn4)CC3C2)cc(=O)[nH]1 (stereo not shown) [Example 252, 6-[5-{[2-Fluoro-6-(2H-1,2,3-triazol-2-yl)phenyl]carbonyl}hexahydropyrrolo[3,4-c]pyrrol-2(1H)-yl]-2-methylpyrimidin-4(3H)-one]	–	≥ 10000 nM
Cc1cc(N2CC3CN(C(=O)c4nc(C)sc4-c4ccc(F)cc4)CC3C2)nc(C)n1 (stereo not shown) [Example 253, 2-(2,6-Dimethylpyrimidin-4-yl)-5-{[5-(4-fluorophenyl)-2-methyl-1,3-thiazol-4-yl]carbonyl}octahydropyrrolo[3,4-c]pyrrole]	5000 nM	–
Cc1cc(C)nc(N2CC3CN(C(=O)c4nc(C)sc4-c4ccc(F)cc4)CC3C2)n1 (stereo not shown) [Example 254, 2-(4,6-Dimethylpyrimidin-2-yl)-5-{[5-(4-fluorophenyl)-2-methyl-1,3-thiazol-4-yl]carbonyl}octahydropyrrolo[3,4-c]pyrrole]	2200 nM	–
Cc1cc(C(=O)O)nc(N2CC3CN(C(=O)c4c(F)cccc4-n4nccn4)CC3C2)n1 (stereo not shown) [Example 265, 2-(5-(2-Fluoro-6-(2H-1,2,3-triazol-2-yl)benzoyl)hexahydropyrrolo[3,4-c]pyrrol-2(1H)-yl)-6-methylpyrimidine-4-carboxylic acid]	9000 nM	–
Cc1cc(C)nc(N2CC3CN(C(=O)c4cccc(C)c4-n4ccnn4)CC3C2)n1 (stereo not shown) [Example 267, (5-(4,6-Dimethylpyrimidin-2-yl)hexahydropyrrolo[3,4-c]pyrrol-2(1H)-yl)(3-methyl-2-(1H-1,2,3-triazol-1-yl)phenyl)methanone]	10000 nM	–
Cc1cc(C)c(C(=O)N2CC3CN(c4nc(C)cc(C)n4)CC3C2)c(C)c1 (stereo not shown) [Example 270, (5-(4,6-Dimethylpyrimidin-2-yl)hexahydropyrrolo[3,4-c]pyrrol-2(1H)-yl)(mesityl)methanone]	1030 nM	–
COc1ccc(C(=O)N2CC3CN(c4nc(C)cc(C)n4)CC3C2)c(-c2ncccn2)c1 (stereo not shown) [Example 272, (5-(4,6-Dimethylpyrimidin-2-yl)hexahydropyrrolo[3,4-c]pyrrol-2(1H)-yl)(4-methoxy-2-(pyrimidin-2-yl)phenyl)methanone]	33 nM	–
COc1cccc(C(=O)N2CC3CN(c4nc(C)cc(C)n4)CC3C2)c1OC (stereo not shown) [Example 273, (2,3-Dimethoxyphenyl)(5-(4,6-dimethylpyrimidin-2-yl)hexahydropyrrolo[3,4-c]pyrrol-2(1H)-yl)methanone]	5000 nM	–
Cc1cc(C)nc(N2CC3CN(C(=O)c4cccc(F)c4-c4ncccn4)CC3C2)n1 (stereo not shown) [Example 283, 2-(4,6-Dimethylpyrimidin-2-yl)-5-[(3-fluoro-2-pyrimidin-2-ylphenyl)carbonyl]octahydropyrrolo[3,4-c]pyrrole]	10 nM	–
Cc1cc(C)nc(N2CC3CN(C(=O)c4cccc(F)c4-c4ccn[nH]4)CC3C2)n1 (stereo not shown) [Example 284, 2-(4,6-Dimethylpyrimidin-2-yl)-5-{[3-fluoro-2-(1H-pyrazol-5-yl)phenyl]carbonyl}octahydropyrrolo[3,4-c]pyrrole]	8 nM	–
COc1cccc(C(=O)N2CC3CN(c4nc(C)cc(C)n4)CC3C2)c1-n1ccnn1 (stereo not shown) [Example 286, 2-(4,6-Dimethylpyrimidin-2-yl)-5-{[3-methoxy-2-(1H-1,2,3-triazol-1-yl)phenyl]carbonyl}octahydropyrrolo[3,4-c]pyrrole]	10000 nM	–
COc1ccc(C(=O)N2CC3CN(c4nc(C)cc(C)n4)CC3C2)c(-n2ccnn2)c1 (stereo not shown) [Example 289]	1800 nM	–
Cc1nc(N2CC3CN(C(=O)c4ccccc4-n4nccn4)CC3C2)ncc1F (stereo not shown) [Example 290, 2-(5-Fluoro-4-methylpyrimidin-2-yl)-5-{[2-(2H-1,2,3-triazol-2-yl)phenyl]carbonyl}octahydropyrrolo[3,4-c]pyrrole]	19 nM	–
O=C(c1ccccc1-n1nccn1)N1CC2CN(c3nc(Cl)ncc3F)CC2C1 (stereo not shown) [Example 291, 2-(2-Chloro-5-fluoropyrimidin-4-yl)-5-{[2-(2H-1,2,3-triazol-2-yl)phenyl]carbonyl}octahydropyrrolo[3,4-c]pyrrole]	266 nM	–
Cc1cc(C(C)C)nc(N2CC3CN(C(=O)c4cc(C(C)C)ccc4-n4nccn4)CC3C2)n1 (stereo not shown) [Example 300, 2-{[5-(1-Methylethyl)-2-(2H-1,2,3-triazol-2-yl)phenyl]carbonyl}-5-[4-methyl-6-(1-methylethyl)pyrimidin-2-yl]octahydropyrrolo[3,4-c]pyrrole]	290 nM	–
Cc1ncnc(N2CC3CN(C(=O)c4c(F)cccc4-n4nccn4)CC3C2)n1 (stereo not shown) [Example 303, 2-{[2-Fluoro-6-(2H-1,2,3-triazol-2-yl)phenyl]carbonyl}-5-(4-methyl-1,3,5-triazin-2-yl)octahydropyrrolo[3,4-c]pyrrole]	1700 nM	–
Cc1noc(-c2ccccc2C(=O)N2CC3CN(c4nc(C)c(C)c(C)n4)CC3C2)n1 (stereo not shown) [Example 309, 2-{[2-(3-Methyl-1,2,4-oxadiazol-5-yl)phenyl]carbonyl}-5-(4,5,6-trimethylpyrimidin-2-yl)octahydropyrrolo[3,4-c]pyrrole]	7 nM	–
Cc1noc(-c2ccccc2C(=O)N2CC3CN(c4ncc(F)c(C)n4)CC3C2)n1 (stereo not shown) [Example 310, 2-(5-Fluoro-4-methylpyrimidin-2-yl)-5-{[2-(3-methyl-1,2,4-oxadiazol-5-yl)phenyl]carbonyl}octahydropyrrolo[3,4-c]pyrrole]	64 nM	–
Cc1nc(N2CC3CN(C(=O)c4ccccc4-c4ncn(C)n4)CC3C2)nc(C)c1C (stereo not shown) [Example 311, 2-{[2-(1-Methyl-1H-1,2,4-triazol-3-yl)phenyl]carbonyl}-5-(4,5,6-trimethylpyrimidin-2-yl)octahydropyrrolo[3,4-c]pyrrole]	7 nM	–

Second part, led by results:

Ki [1]	Compound	Ki
10000 nM	Cc1nc(=O)cc(N2CC3CN(C(=O)c4nc(C)sc4-c4ccc(F)cc4)CC3C2)[nH]1 (stereo not shown) [Example 255, 6-[5-{[5-(4-Fluorophenyl)-2-methyl-1,3-thiazol-4-yl]carbonyl}hexahydropyrrolo[3,4-c]pyrrol-2(1H)-yl]-2-methylpyrimidin-4(3H)-one]	–
10000 nM	O=C(O)c1cnc(N2CC3CN(C(=O)c4c(F)cccc4-n4nccn4)CC3C2)nc1C(F)(F)F (stereo not shown) [Example 263, 2-(5-(2-Fluoro-6-(2H-1,2,3-triazol-2-yl)benzoyl)hexahydropyrrolo[3,4-c]pyrrol-2(1H)-yl)-4-(trifluoromethyl)pyrimidine-5-carboxylic acid]	–
5000 nM	Cc1cc(C)nc(N2CC3CN(C(=O)c4cccc(F)c4F)CC3C2)n1 (stereo not shown) [Example 271, (2,3-Difluorophenyl)(5-(4,6-dimethylpyrimidin-2-yl)hexahydropyrrolo[3,4-c]pyrrol-2(1H)-yl)methanone]	–
61 nM	Cc1cc(C)nc(N2CC3CN(C(=O)c4ccccc4OC(F)(F)F)CC3C2)n1 (stereo not shown) [Example 274, (5-(4,6-Dimethylpyrimidin-2-yl)hexahydropyrrolo[3,4-c]pyrrol-2(1H)-yl)(2-(trifluoromethoxy)phenyl)methanone]	–
2950 nM	COc1cc(C)ccc1C(=O)N1CC2CN(c3nc(C)cc(C)n3)CC2C1 (stereo not shown) [Example 276, (5-(4,6-Dimethylpyrimidin-2-yl)hexahydropyrrolo[3,4-c]pyrrol-2(1H)-yl)(2-methoxy-4-methylphenyl)methanone]	–
680 nM	COc1ccc(C(=O)N2CC3CN(c4nc(C)cc(C)n4)CC3C2)c(C)c1 (stereo not shown) [Example 277, (5-(4,6-Dimethylpyrimidin-2-yl)hexahydropyrrolo[3,4-c]pyrrol-2(1H)-yl)(4-methoxy-2-methylphenyl)methanone]	–
2270 nM	Cc1cc(C)nc(N2CC3CN(C(=O)c4c(F)cccc4F)CC3C2)n1 (stereo not shown) [Example 278, (2,6-Difluorophenyl)(5-(4,6-dimethylpyrimidin-2-yl)hexahydropyrrolo[3,4-c]pyrrol-2(1H)-yl)methanone]	–
1400 nM	Cc1cc(C)nc(N2CC3CN(C(=O)c4cccc(F)c4-n4ccnn4)CC3C2)n1 (stereo not shown) [Example 287, 2-(4,6-Dimethylpyrimidin-2-yl)-5-{[3-fluoro-2-(1H-1,2,3-triazol-1-yl)phenyl]carbonyl}octahydropyrrolo[3,4-c]pyrrole]	–
7 nM	Cc1nc(N2CC3CN(C(=O)c4ccccc4-c4nnc[nH]4)CC3C2)nc(C)c1C (stereo not shown) [Example 305, 2-{[2-(4H-1,2,4-Triazol-3-yl)phenyl]carbonyl}-5-(4,5,6-trimethylpyrimidin-2-yl)octahydropyrrolo[3,4-c]pyrrole]	–
39 nM	Cc1cc(C)nc(N2CC3CN(C(=O)c4ccccc4-c4nc(C)no4)CC3C2)n1 (stereo not shown) [Example 306, 2-(4,6-Dimethylpyrimidin-2-yl)-5-{[2-(3-methyl-1,2,4-oxadiazol-5-yl)phenyl]carbonyl}octahydropyrrolo[3,4-c]pyrrole]	–
26 nM	Cc1cc(C)nc(N2CC3CN(C(=O)c4ccccc4-c4ncn(C)n4)CC3C2)n1 (stereo not shown) [Example 308, 2-(4,6-Dimethylpyrimidin-2-yl)-5-{[2-(1-methyl-1H-1,2,4-triazol-3-yl)phenyl]carbonyl}octahydropyrrolo[3,4-c]pyrrole]	–
79 nM	Cc1nc(N2CC3CN(C(=O)c4ccccc4-c4ncn(C)n4)CC3C2)ncc1F (stereo not shown) [Example 312, 2-(5-Fluoro-4-methylpyrimidin-2-yl)-5-{[2-(1-methyl-1H-1,2,4-triazol-3-yl)phenyl]carbonyl}octahydropyrrolo[3,4-c]pyrrole]	–
